Data: ChEMBL document CHEMBL1154793, “The lecanindoles, nonsteroidal progestins from the terrestrial fungus Verticillium lecanii 6144” (J Nat Prod, 2009)

Key:
[1] = biological target: T1, Progesterone receptor (Homo sapiens) (UniProt P06401); assay: Activation of progesterone receptor in human T47D cells after 20 hrs by PRE-tagged luciferase reporter gene assay relative to control; type: cell-based
T1 sequence (whole entry): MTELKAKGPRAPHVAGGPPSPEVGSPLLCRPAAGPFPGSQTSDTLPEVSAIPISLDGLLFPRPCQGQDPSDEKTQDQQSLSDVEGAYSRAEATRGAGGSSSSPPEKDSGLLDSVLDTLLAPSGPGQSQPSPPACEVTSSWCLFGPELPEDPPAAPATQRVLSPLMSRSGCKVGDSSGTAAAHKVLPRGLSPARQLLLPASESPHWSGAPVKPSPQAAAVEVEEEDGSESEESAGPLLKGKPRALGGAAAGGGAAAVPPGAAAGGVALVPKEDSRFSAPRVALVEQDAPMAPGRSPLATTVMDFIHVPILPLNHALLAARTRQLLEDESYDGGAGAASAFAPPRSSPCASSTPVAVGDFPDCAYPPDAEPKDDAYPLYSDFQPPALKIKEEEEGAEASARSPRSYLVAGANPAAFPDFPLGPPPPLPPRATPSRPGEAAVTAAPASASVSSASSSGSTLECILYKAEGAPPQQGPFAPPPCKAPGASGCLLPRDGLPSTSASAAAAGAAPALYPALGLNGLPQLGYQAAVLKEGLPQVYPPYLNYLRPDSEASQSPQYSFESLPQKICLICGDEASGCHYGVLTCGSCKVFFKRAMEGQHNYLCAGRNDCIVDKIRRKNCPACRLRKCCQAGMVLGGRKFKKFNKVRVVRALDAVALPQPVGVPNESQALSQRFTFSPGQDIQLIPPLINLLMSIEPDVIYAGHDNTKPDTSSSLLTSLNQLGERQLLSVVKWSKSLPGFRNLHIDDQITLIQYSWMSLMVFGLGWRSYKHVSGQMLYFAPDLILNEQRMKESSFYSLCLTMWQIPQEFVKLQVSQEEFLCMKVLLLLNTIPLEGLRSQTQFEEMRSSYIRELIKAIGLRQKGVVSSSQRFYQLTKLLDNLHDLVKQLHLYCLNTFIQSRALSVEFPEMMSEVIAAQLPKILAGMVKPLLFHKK

Progesterone receptor = biological target: T2, Progesterone receptor (Homo sapiens, UniProt P06401); assay: Activation of progesterone receptor in human T47D cells at 1 uM after 20 hrs by PRE-tagged luciferase reporter gene assay; type: cell-based
T2 sequence (P06401 whole entry): T1 sequence (whole entry)

SMILES	Efficacy [1]	EC50 (Progesterone receptor)
CO[C@H]1[C@H](O)[C@@H](O)[C@H](Oc2ccc3c4c([nH]c3c2)[C@@]2(C)[C@@H](CC[C@H]3C(C)(C)C(=O)C=C[C@@]32C)C4)O[C@@H]1CO	< 1%	
CC1(C)[C@@H](O)CC[C@]2(C)[C@@]3(C)c4[nH]c5ccccc5c4C[C@@H]3CC[C@@]12O		Not Active
CC1(C)C(=O)C=C[C@]2(C)[C@@]3(C)c4[nH]c5ccccc5c4C[C@@H]3CC[C@@]12O	< 1%	
